Source: patent US11419859B2, “Combination therapy for treating malignancies” (Servier Pharmaceuticals LLC, priority 2015, dated 2022)

Experiment: blood bilirubin in subjects with a UGT1A1 mutation receiving COMPOUND 1
Type: in vivo, human
Excerpt: All toxicity≥Grade 3 not due to underlying AML or complications of the disease or myelosuppressive treatment, with the exception of ≥Grade 3 blood bilirubin increases in subjects with a UGT1A1 mutation receiving COMPOUND 1.

With `CC(C)(O)CNc1nc(Nc2ccnc(C(F)(F)F)c2)nc(-c2cccc(C(F)(F)F)n2)n1` [COMPOUND 1, 2-methyl-[(4-[6-(trifluoromethyl)pyridin-2-yl]-6-{[2-(trifluoromethyl)pyridin-4-yl]amino}-1,3,5-triazin-2-yl)amino]propan-2-ol] as the compound, how does the blood bilirubin read?
The blood bilirubin was “isolated blood bilirubin increases have been seen”.
